pIC50: −log10 of the molar value.
Molecular target: CDK4/cyclin D1 (Homo sapiens (Human), UniProt P11802)
Assay: CDK4/cyclin D1 enzymatic activity assay (Protocol A, Lance TR-FRET)
Format: biochemical
Settings: CDK4/cyclin D1, 175 nM pRb152, 3 μM ATP, 60 min, room temperature; read-out: IC50 against CDK4 kinase
Procedure: A 384-well microtiter Lance TR-FRET (time-resolved-fluorescence energy transfer) endpoint assay was used for CDK4/cyclin D1 kinase activity measurements. The same assay was used for IC50 determination of small molecule inhibitors. In general, the kinase reactions were carried out in 30 μL volumes in the reaction solution containing the following: 2 μL compound (in 20% DMSO), 18 uL CDK4/cyclin D1 in Assay Buffer (50 mM HEPES, pH 7.5, 5 mM MgCl2, 2 mM MnCl2, 1 mM DTT, 0.05% BSA, 0.02% Tween-20), 10 μL of the mixture of pRb152 and ATP. The final reaction mixture contains compound (inhibitor) with the concentration varying from […], 2% DMSO, 0.3 nM CDK4/cyclin D1, 175 nM pRb152, and 3 μM ATP (Amersham Pharmacia, Cat. No. 27-2056-01). All reactions were run at room temperature in 384-well white flat-bottom OptiPlates (Perkin Elmer, Cat. No. 6007290) for 60 min then were quenched by the addition of 10 μL of 120 mM EDTA. The signals were captured by the addition of 40 μL of the Detection Solution containing the following: Detection Buffer (50 mM HEPES, pH 7.5, 30 mM EDTA, 0.1% Triton x-100, 0.05% BSA), 70 ng/mL anti-phospho-pRb(S780) (Cell Signaling Technology, Cat. No. 9307S), 1 nM Lance Eu-W1024-Rabbit anti-IgG (Perkin Elmer, Cat. No. AD0082), and 20 nM SureLight™ Allophycocyanin-Streptavidin (Perkin Elmer, Cat. No. CR130-100). The resulted solutions were incubated at room temperature for 2 hours before read on the Evision Multilabel Reader (Perkin Elmer, Envision 2102-0010). Note: IC50<0.005 nM or IC50>10 μM indicates the true IC50 is out of detection range.
CDK4/cyclin D1 recombinant protein used in the enzymatic activity assay was prepared by coexpressing pDEST10-CDK4 (N-terminal His6) and pFastBacDual-GST-hCyclinD1 viruses in Sf21 cells. The overexpressed protein was purified by Ni-NTA affinity pull down to >80% pure by Sizing HPLC.

CDK4/cyclin D1, sequence (P11802 whole entry): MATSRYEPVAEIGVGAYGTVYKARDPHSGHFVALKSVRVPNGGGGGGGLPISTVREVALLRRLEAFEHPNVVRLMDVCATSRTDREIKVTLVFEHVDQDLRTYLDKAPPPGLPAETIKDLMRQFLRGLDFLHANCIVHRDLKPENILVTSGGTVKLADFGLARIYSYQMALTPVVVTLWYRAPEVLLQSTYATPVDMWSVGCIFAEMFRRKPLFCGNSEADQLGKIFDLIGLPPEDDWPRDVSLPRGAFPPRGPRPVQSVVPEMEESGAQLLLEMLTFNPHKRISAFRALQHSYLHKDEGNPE
CDK4/cyclin D1, sequence (P24385 whole entry partner): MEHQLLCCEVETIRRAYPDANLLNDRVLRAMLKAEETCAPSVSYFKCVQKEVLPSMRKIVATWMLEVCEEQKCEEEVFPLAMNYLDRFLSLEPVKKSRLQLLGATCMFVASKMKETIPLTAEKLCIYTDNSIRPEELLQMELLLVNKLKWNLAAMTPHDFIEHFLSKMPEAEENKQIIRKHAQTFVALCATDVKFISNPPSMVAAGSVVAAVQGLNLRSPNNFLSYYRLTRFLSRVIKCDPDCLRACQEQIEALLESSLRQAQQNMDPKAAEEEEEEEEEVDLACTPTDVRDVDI

Q: How did the pIC50 turn out when `Cc1nn(C)c(C)c1-c1cc(C(=O)c2nc3ccc(N4CCC(N(C)C)CC4)nc3[nH]2)ccc1C#N` [Example 173, 4-[5-(4-Dimethylamino-piperidin-1-yl)-3H-imidazo[4,5-b]pyridine-2-carbonyl]-2-(1,3,5-trimethyl-1H-pyrazol-4-yl)-benzonitrile] was run?
A: The pIC50 was 7.92.

Q: With `Cc1ncc2ccccc2c1-c1cc(C(=O)c2nc3cc(C(=O)N4CCNCC4)ccc3[nH]2)ccc1C#N` [Example 174, 2-(3-Methyl-isoquinolin-4-yl)-4-[5-(piperazine-1-carbonyl)-1H-benzoimidazole-2-carbonyl]-benzonitrile] as the compound, how does the pIC50 read?
A: Its pIC50 is 8.30.

Q: `O=C(c1ccnc(-c2cncc3ccccc23)c1)c1nc2ccc(S(=O)(=O)N3CCNCC3)cc2[nH]1` [Example 182, (2-Isoquinolin-4-yl-pyridin-4-yl)-[6-(piperazine-1-sulfonyl)-1H-benzoimidazol-2-yl]-methanone] was tested. Which pIC50 did it give?
A: The pIC50 was 7.11.

Q: With `Cc1nn(C)c(C)c1-c1cc(C(=O)c2nc3ccc(N4CCNCC4)nc3[nH]2)ccc1C#N` [Example 189, 4-(5-piperazin-1-yl-3H-imidazo[4,5-b]pyridine-2-carbonyl)-2-(1,3,5-trimethyl-1H-pyrazol-4-yl)-benzonitrile] as the compound, how does the pIC50 read?
A: The pIC50 was 7.02.

Same assay, conditions: CDK4/cyclin D1, 175 nM pRb152, 3 μM ATP; bound stated; read-out: IC50 values against CDK4

Q: With `Cc1nn(C)c(C)c1-c1cc(C(=O)c2nc3ccc(N4CC5(CNC5)C4)nc3[nH]2)ccc1C#N` [Example 207, 4-[5-(2,6-Diaza-spiro[3.3]hept-2-yl)-3H-imidazo[4,5-b]pyridine-2-carbonyl]-2-(1,3,5-trimethyl-1H-pyrazol-4-yl)-benzonitrile] as the compound, how does the pIC50 read?
A: Its pIC50 is over 5.00.

Q: With `Cc1nn(C)c(C)c1-c1cc(C(=O)c2nc3ccc(N4CCNC(C)(C)C4=O)nc3[nH]2)ccc1C#N` [Example 209, 4-[5-(3,3-Dimethyl-2-oxo-piperazin-1-yl)-3H-imidazo[4,5-b]pyridine-2-carbonyl]-2-(1,3,5-trimethyl-1H-pyrazol-4-yl)-benzonitrile] as the compound, how does the pIC50 read?
A: The pIC50 was over 5.00.
